In data set [1] the target is T1, interaction of AKAP-Lbc/DHPH and RhoA (Homo sapiens, UniProt P61586).
T1 construct: His6-AKAP-Lbc/DHPH (aa 1972–2342 of human AKAP-Lbc; NP_006729.4); made in house
The data set can be described thus: Homogeneous time-resolved fluorescence (HTRF) assay. The following applies: for inhibitory effect on the AKAP-Lbc/DHPH-RhoA interaction: result in words. The data set is classed as binding. The source says:
Fig 2 The small molecule Scaff10-8 inhibits the interaction of the DH domain of AKAP-Lbc and RhoA. (A). Principle of homogenous time-resolved fluorescence (HTRF) assay. Recombinant His-AKAP-Lbc/DHPH and GST-RhoA were generated. The tags are recognized by specific antibodies coupled to fluorescent dyes. When the two proteins interact, donor and acceptor dyes of the antibodies are in close proximity, energy transfer occurs upon excitation at 320 nm and a FRET signal is detected (665 nm). If a compound disrupts the interaction of the DHPH domain and RhoA, the proximity of the fluorescent moieties remains insufficient for a FRET signal to occur. […] As expected, excess untagged Rho decreases the binding between GST-RhoA and His-AKAP-Lbc/DHPH in a dose-dependent manner (lower left panel). […] (C) The influence of Scaff10-8 on the interaction of RhoA with the recombinant DH domain of AKAP-Lbc in the absence of the PH domain was determined by Alpha screen. […] The IC50 value is indicated.
The assay was essentially carried out as described. Scaff10 derivatives were added to His6-AKAP-Lbc/DHPH protein (250 nM final concentration) in HTRF buffer (PBS; 4 mM MgCl2; 0.05% Tween 20) in 384 well plates (Proxiplate-384 Plus, white, #6008289; Perkin Elmer LAS, Rodgau, Germany). Concentrations of Scaff10 derivatives ranged between 1.56–200 μM (2% DMSO final concentration); HTRF buffer with 2% DMSO served as a control. GST-RhoA (30 nM final concentration) in HTRF buffer and anti-GST antibody coupled to terbium (donor) and anti-His6-tag antibody coupled to XL665 (acceptor) were added to all wells (final antibody concentration: 2 μg/ml). After 1 h incubation at room temperature in the dark, FRET signals were recorded at 620 and 665 nm using a Genios Pro plate reader (Tecan Austria GmbH, Grödig, AT) and the ratios of […] to 620 nm were calculated. Wells containing no compound were set to 100% interaction of AKAP-Lbc/DHPH with RhoA, wells containing GST-RhoA only (without His6-AKAP-Lbc/DHPH) were set to 0% interaction. To exclude any interference of the tags and/or antibodies with Scaff10 derivatives, a His6-GST fusion protein replaced the two tagged proteins in a control assay. Wells containing His6-GST fusion protein were set to 100% interaction of His6-GST, wells containing no fusion protein were set to 0% interaction.

The nature of a further data set: Nephelometric solubility. The following applies: maximal solubility in DMEM + 10 % FCS. The data set is classed as physicochemical. The method, then: Solubility of Scaff10 derivatives was assessed nephelometrically. Scaff10 derivatives are moderately to poorly soluble in aqueous solutions due to their large number of aromatic rings having lipophilic character. Details about NMR, LC/MS and HPLC characterization steps are given in the Supplemental Information.
Suppl. Tab. 3: Overview of all 55 Scaff10 derivatives.Structures labeld with 1 were commercially obtained. MW = molecular weight. logP = calculated partition coefficient (using […]
Solubility was assessed nephelometrically in DMEM + 10 % FCS + Scaff10 derivative with either 0.3 or 2 % DMSO
final concentration; values in µM indicate maximal solubility of the compound under the respective condition. Yield in % indicates total yield of the last step of chemical synthesis
for each of Scaff10 derivatives. n.d. = not determined. n.i. = not indicated.
Scaff10 MW Number of exp. 2 % DMSO 0.3 % DMSO Scaff10 Yield
Structure log P Disruption of the PPI IC50 [µM]
derivative [g/mol] in dupl. [µM] [µM] class [%]

[2] abbreviates: Suppl. Tab. 3, ± SEM, '-' = no IC50, inactive, n.d. = not determined, read-out: HTRF assay IC50.
The mark [3] stands for this setting: DMEM + 10 % FCS, plasma or biological fluid, kinetic from dmso stock, 2 % DMSO final, read-out: Solubility 2 % DMSO.
Where [4] appears, read: 2 % DMSO final, read-out: Solubility 2 % DMSO.
The mark [5] stands for this setting: DMEM + 10 % FCS, plasma or biological fluid, kinetic from dmso stock, 0.3 % DMSO final, read-out: Solubility 0.3 % DMSO.
[6] abbreviates: Table 1, HTRF, '-' = no IC50, inactive (n.d. is used separately in S3 Table), read-out: IC50 ± SEM.
[7] abbreviates: 0.3 % DMSO final, read-out: Solubility 0.3 % DMSO.
[8] abbreviates: IC50 ± SEM, Table 1, HTRF, '-' = no IC50, inactive (n.d. is used separately in S3 Table).

Results on 24 compounds are retold here after paper PMC5786306, “An AKAP-Lbc-RhoA interaction inhibitor promotes the translocation of aquaporin-2 to the plasma membrane of renal collecting duct principal cells” (PLoS ONE, 2018).

Molecules are shown by their SMILES. Like-named read-outs stand apart in the source and are kept apart here.

T1 sequence (P61586 whole entry, the tested form may be a part): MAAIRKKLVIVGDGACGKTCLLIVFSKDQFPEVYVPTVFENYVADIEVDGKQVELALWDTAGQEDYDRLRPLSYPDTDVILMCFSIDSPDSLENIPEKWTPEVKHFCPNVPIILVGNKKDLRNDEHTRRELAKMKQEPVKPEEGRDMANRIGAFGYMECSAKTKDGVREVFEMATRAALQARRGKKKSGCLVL

For the compound `COc1ccc(C(=O)COc2ccc3ccc(=O)oc3c2)cc1` [AE167, 7-[2-(4-Methoxyphenyl)-2-oxo-ethoxy]chromen-2-one], in data set [1] (setting [2]), the IC50 is over 200 µM. Further, the solubility in “Nephelometric solubility” (setting [3]) turned out to be 30 µM.
As to `COc1ccc(C(=O)COc2ccc3c(C)c(C)c(=O)oc3c2)cc1` [AE168, [2-(4-Methoxyphenyl)-2-oxo-ethoxy]-3,4-dimethyl-chromen-2-one], in data set [1] (setting [2]), the IC50 was over 200 µM. The solubility in the data set “Nephelometric solubility” (setting [4]) is reported as 75 µM.
For the compound `COc1ccc(-c2coc3cc4oc(=O)ccc4cc23)cc1` [Scaff10-1, 3-(4-Methoxyphenyl)furo[3,2-g]chromen-7-one], the IC50 in data set [1] (setting [2]) was over 200 µM. Further, the solubility in the data set “Nephelometric solubility” (setting [5]) is 40 µM; in “Nephelometric solubility” (setting [3]), 45 µM.
`Cc1c(C)c2ccc(OCC(=O)c3cccnc3)cc2oc1=O` [Scaff10-2, 3,4-Dimethyl-7-[2-oxo-2-(3-pyridyl)ethoxy]chromen-2-one]: the IC50 in data set [1] (setting [2]) is over 200 µM. The solubility in “Nephelometric solubility” (setting [5]) was found to be 75 µM; in “Nephelometric solubility” (setting [3]), 90 µM.
As for `Cc1c(C)c2cc3c(-c4cccnc4)coc3cc2oc1=O` [Scaff10-3, 5,6-Dimethyl-3-(3-pyridyl)furo[3,2-g]chromen-7-one], the IC50 in data set [1] (setting [2]) is over 200 µM. Besides, the solubility in “Nephelometric solubility” (setting [5]) is over 150 µM; in “Nephelometric solubility” (setting [3]), 40 µM.
Regarding `Cc1nc(-c2ccc(F)cc2)ccc1C(=O)COc1ccc2c(C)c(C)c(=O)oc2c1` [Scaff10-4, 7-[2-[6-(4-Fluorophenyl)-2-methyl-3-pyridyl]-2-oxo-ethoxy]-3,4-dimethyl-chromen-2-one], the IC50 in data set [1] (setting [2]) was over 200 µM. In addition, the solubility in “Nephelometric solubility” (setting [5]) is over 150 µM; in “Nephelometric solubility” (setting [3]), 40 µM.
Taken in the same sequence, the figures for `Cc1nc(-c2ccc(F)cc2)ccc1-c1coc2cc3oc(=O)c(C)c(C)c3cc12` [Scaff10-5, 3-[6-(4-Fluorophenyl)-2-methyl-3-pyridyl]-5,6-dimethyl-furo[3,2-g]chromen-7-one] were over 200 µM, over 150 µM and 65 µM.
For `COc1ccc(C(=O)COc2ccc3c(C)c(CCC(=O)O)c(=O)oc3c2)cc1` [Scaff10-6, 3-[7-[2-(4-Methoxyphenyl)-2-oxo-ethoxy]-4-methyl-2-oxo-chromen-3-yl]propanoic acid], in data set [1] (setting [6]), the IC50 is over 200 µM. Also, the figures for the solubility in “Nephelometric solubility” (setting [5]) and in “Nephelometric solubility” (setting [3]) were over 150 µM and 100 µM, respectively.
On to `COc1ccc(C(=O)COc2ccc3c(C)c(CCC(=O)NCCNC(=O)CCCCC4SCC5NC(=O)NC54)c(=O)oc3c2)cc1` (centres unmarked) [Scaff10-9, N-[2-[3-[7-[2-(4-Methoxyphenyl)-2-oxo-ethoxy]-4-methyl-2-oxo-chromen-3-yl]propanoylamino]ethyl]-5-(2-oxo-1,3,3a,4,6,6a-hexahydrothieno[3,4-d]imidazol-4-yl)pentanamide], for which the IC50 in data set [1] (setting [2]) is over 200 µM.
With `CCOC(=O)CCc1c(C)c2ccc(OCC(=O)c3ccc(-c4ccc(F)cc4)nc3C)cc2oc1=O` [Scaff10-10, Ethyl 3-[7-[2-[6-(4-fluorophenyl)-2-methyl-3-pyridyl]-2-oxo-ethoxy]-4-methyl-2-oxo-chromen-3-yl]propanoate], the IC50 in data set [1] (setting [2]) is over 200 µM. The solubility in “Nephelometric solubility” (setting [7]) is over 150 µM; in the data set “Nephelometric solubility” (setting [4]) it was 30 µM.
As to `COc1ccc(-c2coc3cc4oc(=O)c(CCC(=O)N(C)C)c(C)c4cc23)cc1` [Scaff10-26], the “inhibitory effect on the AKAP-Lbc/DHPH-RhoA interaction” value in data set [1] (HTRF) is on record as “complete loss of the inhibitory effect”. Further, in data set [1] (setting [6]), the IC50 was over 200 µM. Besides, the figures for the solubility in “Nephelometric solubility” (setting [7]) and in the data set “Nephelometric solubility” (setting [4]) were over 150 µM and 50 µM, respectively.
As to `Cc1c(CCC(=O)O)c(=O)oc2cc3occ(-c4ccc(C(F)(F)F)cc4)c3cc12` [Scaff10-30], the “inhibitory effect on the AKAP-Lbc/DHPH-RhoA interaction” value in data set [1] (HTRF) is reported as “reduced”. The compound further returned an IC50 in data set [1] (setting [8]) of 47.8 ± 7.8 µM. Besides, the solubility in the data set “Nephelometric solubility” (setting [3]) was over 100 µM.
As to `Cc1c(CCC(=O)O)c(=O)oc2cc3occ(-c4ccncc4)c3cc12` [Scaff10-32], in data set [1] (HTRF), the “inhibitory effect on the AKAP-Lbc/DHPH-RhoA interaction” value is listed as “complete loss of activity”. Moreover, the IC50 in data set [1] (setting [6]) is over 200 µM. For the same compound, the figures for the solubility in the data set “Nephelometric solubility” (setting [7]) and in the data set “Nephelometric solubility” (setting [4]) were over 150 µM and over 100 µM, respectively.
Taken in the same sequence, the figures for `Cc1c(CCC(=O)O)c(=O)oc2cc(OCC(=O)c3ccc(N(C)C)cc3)ccc12` [Scaff10-35] were “complete loss of activity”, over 200 µM, over 150 µM and over 100 µM.
As to `Cc1c(CCC(=O)O)c(=O)oc2cc(OCC(=O)c3ccc(-c4ccccc4)cc3)ccc12` [Scaff10-40], the IC50 in data set [1] (IC50 for inhibition of the AKAP-Lbc/DHPH-RhoA interaction, HTRF, text and figures, ± SEM, n = 3–15 in duplicate) worked out at 21 ± 3 µM; in data set [1] (setting [8]), 20.8 ± 2.6 µM. In addition, the values for the solubility in the data set “Nephelometric solubility” (setting [5]) and in the data set “Nephelometric solubility” (setting [3]) were 10 µM and 15 µM, respectively.
As for `Cc1c(CCC(=O)O)c(=O)oc2cc3occ(-c4ccc(-c5ccccc5)cc4)c3cc12` [Scaff10-41], the IC50 in data set [1] (setting [8]) amounted to 29.1 ± 2.6 µM. Also, the solubility in the data set “Nephelometric solubility” (setting [3]) was 50 µM.
In data set [1] (setting [8]), `COc1ccc2cc(-c3coc4cc5oc(=O)c(CCC(=O)O)c(C)c5cc34)ccc2c1` [Scaff10-44] showed an IC50 of 20.7 ± 2.5 µM. For the same compound, the solubility in the data set “Nephelometric solubility” (setting [5]) is 40 µM; in “Nephelometric solubility” (setting [3]), 15 µM.
In the case of `Cc1c(C)c2cc3c(-c4ccc(-c5ccccc5)cc4)coc3cc2oc1=O` [Scaff10-46], the “inhibitory effect on the AKAP-Lbc/DHPH-RhoA interaction” value in data set [1] (HTRF) was “no inhibitory effect”. Also, the IC50 in data set [1] (setting [6]) is over 200 µM. Further, the solubility in the data set “Nephelometric solubility” (setting [7]) is on record as over 150 µM; in “Nephelometric solubility” (setting [4]), 15 µM.
Taken in the same sequence, the figures for `COc1ccc2cc(-c3coc4cc5oc(=O)c(C)c(C)c5cc34)ccc2c1` [Scaff10-47] were “no inhibitory effect”, over 200 µM, over 150 µM and 15 µM.
Take `COc1ccc(-c2coc3cc4oc(=O)c(CC(=O)O)c(C)c4cc23)cc1` [Scaff10-49]: the IC50 in data set [1] (HTRF, text and figures, ± SEM, n = 3–15 in duplicate, read-out: IC50 for inhibition of the AKAP-Lbc/DHPH-RhoA interaction) is 56 ± 5 µM; in data set [1] (setting [6]), 56.4 ± 4.5 µM. Further, the solubility in the data set “Nephelometric solubility” (setting [5]) was over 150 µM; in the data set “Nephelometric solubility” (setting [3]) it was over 100 µM.
For `COc1ccc(-c2coc3c(C)c4oc(=O)c(CCC(=O)O)c(C)c4cc23)cc1` [Scaff10-50], the IC50 in data set [1] (setting [2]) was 26.8 ± 3.5 µM. Moreover, the values for the solubility in “Nephelometric solubility” (setting [5]) and in the data set “Nephelometric solubility” (setting [3]) were over 150 µM and 70 µM, respectively.
For `COc1ccc(-c2coc3cc4oc(=O)c(CCC(=O)NO)c(C)c4cc23)cc1` [Scaff10-51], the “inhibitory effect on the AKAP-Lbc/DHPH-RhoA interaction” value in data set [1] (HTRF) is reported as “almost complete loss of activity”. For the same compound, in data set [1] (setting [6]), the IC50 is over 200 µM. The figures for the solubility in the data set “Nephelometric solubility” (setting [7]) and in “Nephelometric solubility” (setting [4]) were 40 µM and 20 µM, respectively.
As to `Cc1c(CCC(=O)O)c(=O)oc2cc3occ(-c4ccccc4)c3cc12` [Scaff10-58], in data set [1] (setting [6]), the IC50 came out at 66.7 ± 7.5 µM. Moreover, the solubility is over 150 µM in “Nephelometric solubility” (setting [5]) and over 100 µM in the data set “Nephelometric solubility” (setting [3]).
Regarding `COc1ccc(-c2coc3cc4oc(=O)c(CCC(=O)NCC(=O)O)c(C)c4cc23)cc1` [Scaff10-61], the IC50 in data set [1] (setting [8]) amounted to 64 ± 6 µM. Also, the solubility in “Nephelometric solubility” (setting [5]) was over 150 µM.
